≈ marks a conversion by molar mass, not a printed value.
Key:
[1] = test system: Staphylococcus aureus (Isolate ID ATCC 29213); experiment: Antibacterial activity, MIC, S. aureus; type: cell-based; settings: Staphylococcus aureus, ATCC29213, Gram positive strain; broth microdilution or agar dilution
Protocol: (§1) Bacterial Assay: Determination of Antibacterial Activity
(§2) Compounds of the invention were tested for antimicrobial activity by susceptibility testing in liquid or on solid media. MICs for compounds against each strain were determined by the broth microdilution or agar dilution method according to the guidelines of the Clinical Laboratories and Standards Institute, formerly the National Committee for Clinical Laboratory Standards (Clinical Laboratories and Standards Institute. Methods for Dilution Antimicrobial Susceptibility Tests for Bacteria That Grow Aerobically; Approved Standard—Seventh Edition. Document M7-A7. CLSI, Wayne, Pa., 2006; Clinical Laboratories and Standards Institute. The gram positive bacterial strains tested include S. aureus (Staphylococcus aureus (Isolate ID ATCC 29213)), E. faecalis (Enterococcus faecalis (Isolate ID ATCC 29212)) and S. pyogenes (Streptococcus pyogenes (Isolate ID ATCC 51339)). The gram negative bacterial strains tested include H. influenzae (Haemophilus influenzae (Isolate ID ATCC 49247))

[2] = test system: Streptococcus pyogenes (Isolate ID ATCC 51339); experiment: Antibacterial activity, MIC, S. pyogenes; type: cell-based; settings: Streptococcus pyogenes, ATCC51339, Gram positive strain; broth microdilution or agar dilution
Protocol: as §1, §2

[3] = physchem; settings: kinetic from dmso stock
Protocol: Turbimetric Assay: Determination of Solubility
The solubility of the compounds was measured using a turbidimetric method. A series of doubling dilutions of compounds were prepared in neat dimethyl sulfoxide (DMSO). 5 μl samples were diluted twenty-fold into 95 μl volumes of 100 mM citrate buffer (pH 4), phosphate buffered saline (PBS, pH 7.4) or carbonate-bicarbonate buffer (pH 9) in microtitre assay plates and allowed to reach equilibrium at room temperature for 24 hours. The absorbance within each well of the plate was read spectrophotometrically at a wavelength of 620 nm. A precipitate forms when the maximum aqueous solubility level is reached. The value quoted is the highest concentration where the compound was in solution i.e. where no measurable precipitate was present. […] ND=not determined

[4] = test system: Haemophilus influenzae (Isolate ID ATCC 49247); experiment: Antibacterial activity, MIC, H. influenzae; type: cell-based; settings: Haemophilus influenzae, ATCC49247; Gram negative strain; broth microdilution or agar dilution
Protocol: as §1, §2

[5] = pH 7.4, aqueous buffer, Solubility (pH 7.4)
[6] = pH 7.4, aqueous buffer, Solubility Range
[7] = pH 7.4, aqueous buffer, Max Solubility
[8] = pH 7.4, aqueous buffer, Solubility Range (maximum solubility)

MIC [1] [µg/mL]	MIC [2] [µg/mL]	solubility at 24 h [3, 5] [µg/mL]	solubility at 24 h [3, 6] [µg/mL]	solubility at 24 h ([3]; pH 9, aqueous buffer, Max Solubility) [µg/mL]	solubility at 24 h ([3]; pH 9, aqueous buffer, Solubility Range (maximum solubility)) [µg/mL]	MIC [4] [µg/mL]	solubility at 24 h [3, 7] [µg/mL]	solubility at 24 h [3, 8] [µg/mL]	solubility at 24 h ([3]; pH 4, aqueous buffer, Max Solubility) [µg/mL]	solubility at 24 h ([3]; pH 4, aqueous buffer, Solubility Range (maximum solubility)) [µg/mL]	Compound
0.25 to 1 (≈ 0.47 to 1.88 µM)	0.25 to 1 (≈ 0.47 to 1.88 µM)	400 (≈ 752 µM)	400 to 800 (≈ 752 to 1500 µM)	≥ 800	> 800	1 to 16 (≈ 1.88 to 30.1 µM)	–	–	–	–	CCNC(=O)Nc1nc2cc(-c3cnc(N4CCC(C)(C(=O)O)CC4)nc3C)cc(-c3ccccn3)c2s1 [Compound 214]
> 16	1 to 16 (≈ 1.95 to 31.3 µM)	≥ 800	> 800	–	–	> 16	≥ 800	> 800	–	–	CCNC(=O)Nc1nc2cc(-c3cnc(N4CCC(C)(C(=O)O)CC4)nc3)cc(C(=O)NCC)c2s1 [Compound 97, 1-[5-[7-(Ethylcarbamoyl)-2-(ethylcarbamoylamino)-1,3-benzothiazol-5-yl]pyrimidin-2-yl]-4-methyl-piperidine-4-carboxylic acid]
≤ 0.25	≤ 0.25	≥ 800	> 800	–	–	1 to 16 (≈ 1.88 to 30.1 µM)	≥ 800	> 800	–	–	CCNC(=O)Nc1nc2cc(-c3cnc(N4CCCC(C)(C(=O)O)CC4)nc3)cc(-c3ccccn3)c2s1 (stereo not shown) [Compound 166]
≤ 0.25	≤ 0.25	≥ 800	> 800	–	–	1 to 16 (≈ 1.9 to 30.4 µM)	≥ 800	> 800	–	–	CCNC(=O)Nc1nc2cc(-c3cnc(N4CCC(CC)(C(=O)O)CC4)nc3)cc(/C(C)=N/OC)c2s1 [Compound 116, 4-ethyl-1-[5-[2-(ethylcarbamoylamino)-7-[(E)-N-methoxy-C-methyl-carbonimidoyl]-1,3-benzothiazol-5-yl]pyrimidin-2-yl]piperidine-4-carboxylic acid]
1 to 16 (≈ 1.99 to 31.8 µM)	0.25 to 1 (≈ 0.496 to 1.99 µM)	≥ 800	> 800	–	–	1 to 16 (≈ 1.99 to 31.8 µM)	≥ 800	> 800	–	–	CCNC(=O)Nc1nc2cc(-c3cnc(N4CCC(C)(C(=O)O)C4)nc3)cc(-c3ccccn3)c2s1 (stereo not shown) [Compound 201]
1 to 16 (≈ 2.01 to 32.2 µM)	0.25 to 1 (≈ 0.502 to 2.01 µM)	≥ 800	> 800	–	–	> 16	≥ 800	> 800	–	–	CCNC(=O)Nc1nc2cc(-c3cnc(N4CCC(C)(C(=O)O)CC4)nc3)cc(/C(C)=N/O)c2s1 [Compound 95]
1 to 16 (≈ 1.89 to 30.3 µM)	1 to 16 (≈ 1.89 to 30.3 µM)	≥ 800	> 800	–	–	1 to 16 (≈ 1.89 to 30.3 µM)	≥ 800	> 800	–	–	CCNC(=O)Nc1nc2cc(-c3cnc(N4CCC(C)(C(=O)O)CC4)nc3)cc(COCCOC)c2s1 [Compound 194]
1 to 16 (≈ 1.8 to 28.8 µM)	1 to 16 (≈ 1.8 to 28.8 µM)	≥ 800	> 800	–	–	> 16	≥ 800	> 800	–	–	CCNC(=O)Nc1nc2cc(-c3cnc(N4CCC(C)(C(=O)O)CC4)nc3)cc(/C(C)=N/OCCOC)c2s1 [Compound 188]
≤ 0.25	1 to 16 (≈ 1.77 to 28.4 µM)	25 (≈ 44.4 µM)	12.5 to 400 (≈ 22.2 to 710 µM)	–	–	1 to 16 (≈ 1.77 to 28.4 µM)	–	–	50 (≈ 88.7 µM)	12.5 to 400 (≈ 22.2 to 710 µM)	CCNC(=O)Nc1nc2cc(-c3cnc(NC4COC(C)(C(=O)OCC)OC4)nc3)cc(-c3ccccn3)c2s1 (stereo not shown) [Compound 216]
≤ 0.25	≤ 0.25	≥ 800	> 800	–	–	0.25 to 1 (≈ 0.457 to 1.83 µM)	≥ 800	> 800	–	–	CCNC(=O)Nc1nc2cc(-c3cnc(N4CCC(CC)(C(=O)O)CC4)nc3)cc(-c3ncc(C)cn3)c2s1 [Compound 226]
